Consider 1 molecule from patent US5565561A, “Natural substance cyclamenol and chemical derivatives” (Bayer Aktiengesellschaft, priority 1992, dated 1996).

Assay [1] concerns Leucocyte adhesion in small venules. Put plainly: Leucocyte adhesion in small venules of the hamster cheek pouch. The class given is in vivo. To be noted: Mesocricetus auratus, iv, adhesion caused by the preparation, read-out: dose from which leucocyte adhesion is significantly reduced. From the text: (§1) 3. Leucocyte adhesion in small venules was investigated in the hamster cheek pouch (preparation according to Duling, MVR 5, 423-429, 1973). An increased adhesion is caused by the preparatory preparation of the cheek pouch. […] The determination of the myeloperoxidase activity as a direct measure of the accumulation of neutrophilic leucocytes gives increases of around 80-100% compared to the control.

Another assay concerns infarcted cardiac tissue. The assay can be described thus: Reduction of the infarct size in the rat infarct model. The class given is in vivo, Wistar rats. To be noted: 1 mg/kg each before occlusion and before reperfusion, jugular vein infusion; average and standard deviation, 11 rats. How it is done: After a 5-minute post-operative recovery phase, the compound from Example 1 in a dose of 1 mg/kg dissolved in 100% DMSO or solvents was infused for 6 min into the catheterized jugular vein of the ventilated rats and the coronary artery was occluded for 30 min. At the 25 minute point of the occlusion, the second administration of the compound from Example 1 or solvent is carried out under the conditions described above. After the end of the infusion and occulsion phase, the ligature was opened and the heart was reperfused for 90 min.
For histological staining of the infarcted cardiac tissue, the heart was perfused ex vivo retrogressively with triphenyltetrazolium chloride (TTC, 1.5%) in 20 mM potassium phosphate buffer for 15 min and with 0.9% NaCl for 10 min at 37° C. and at a perfusion pressure of 100 mm Hg. The infarct sizes were calculated in percent by weight of infarcted to non-infarcted tissue and indicated in percent as average values and their standard deviations of 11 rats treated with the compound from Example 1 and of 11 treated with solvent.

Assay [2] concerns myeloperoxidase activity (accumulation of neutrophilic leucocytes). The assay can be described thus: LTB4-superfused hamster cheek pouch, myeloperoxidase activity as measure of accumulation of neutrophilic leucocytes. Format: in vivo. To be noted: 1 mg/kg i.v.; cheek pouch superfused with LTB4 for 10 min.
Description: as §1

Assay [3] deals with T1, Myeloperoxidase from human polymorphonuclear neutrophils (Homo sapiens, UniProt P05164).
T1 construct: The latter were isolated from fresh venous whole blood; endogenous in cells; host or cells: human polymorphonuclear neutrophils isolated from fresh venous whole blood; lysed with cetyltrimethylammonium bromide, 40,000 g supernatant
T1 sequence (P05164 279-745 limits assumed): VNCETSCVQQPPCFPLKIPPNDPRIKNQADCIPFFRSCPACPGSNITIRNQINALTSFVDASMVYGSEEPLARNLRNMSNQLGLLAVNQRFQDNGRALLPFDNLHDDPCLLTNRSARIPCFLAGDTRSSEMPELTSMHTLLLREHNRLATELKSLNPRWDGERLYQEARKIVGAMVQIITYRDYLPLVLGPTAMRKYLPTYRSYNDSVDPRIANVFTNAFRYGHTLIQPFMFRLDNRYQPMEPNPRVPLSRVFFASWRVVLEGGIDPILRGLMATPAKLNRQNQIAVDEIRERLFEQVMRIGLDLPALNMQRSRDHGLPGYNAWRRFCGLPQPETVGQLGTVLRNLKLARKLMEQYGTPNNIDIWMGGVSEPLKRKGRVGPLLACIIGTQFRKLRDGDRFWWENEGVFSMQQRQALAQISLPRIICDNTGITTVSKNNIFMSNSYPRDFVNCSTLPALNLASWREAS
T1 sequence (P05164 165-278 limits assumed): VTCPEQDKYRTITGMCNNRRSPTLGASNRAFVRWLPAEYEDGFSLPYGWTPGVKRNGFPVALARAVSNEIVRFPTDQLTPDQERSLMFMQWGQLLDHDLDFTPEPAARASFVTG
Put plainly: Inhibition of myeloperoxidase activity (ortho-dianisidine/H2O2, absorbance at 490 nm). Format: biochemical. The settings on record: pH 6.0, 30° C. As for the experimental part: Myeloperoxidase from human polymorphonuclear neutrophils was used for the measurements. The latter were isolated from fresh venous whole blood according to the method of D. English and B. R. Andersen, Journal of Immunological Methods 5, (1974) 249-252.
10^7 cells were lysed at 0° C. for 10 min using 1 ml of 0.5% cetyltrimethylammonium bromide in 50 mmol/l sodium phosphate buffer pH 6.0, frozen and directly thawed again. This process was repeated twice. The suspension was then centrifuged at 40,000 g for 10 min. The supernatant was diluted with 50 mmol/l sodium phosphate buffer pH 6.0 according to its myeloperoxidase activity and used for the tests.
To carry out the tests, 10 μl of test sample are added to a dimethyl sulphoxide-containing solution (max. v/v 30%) with 30 μl of the myeloperoxidase solution prepared as described above=1-2.5 μg of protein, in a microtitre plate (Greiner) with a smooth bottom. The reaction is started by addition of a test mixture consisting of 250 μl of 50 mmol/l sodium phosphate buffer pH 6.0, 10 μl of 0.5×10^-3 mmol/l H2 O2 and 10 μl of 2.5×10^-2 mol/l ortho-dianisidine in dimethyl sulphoxide. The increase in the absorbance is measured at 490 nm in an Elisa reader at 30° C. 6 measurements are carried out at an interval of 2 min and the increase in absorbance per minute is calculated. A control which instead of a test sample contains only the corresponding amount of dimethyl sulphoxide is prepared as the 100% value and then the inhibition by the sample is calculated. All measurements are carried out as a triplicate determination.

Regarding `CC1C=CC=CC=CC=CC(O)CC=CC=CC=CC(=O)NC1` (centres unmarked) [Example 1, Cyclamenol], in assay [1], the minimal effective dose was at least 0.1 mg/kg. Further, in the assay with infarcted cardiac tissue, the “reduction of infarct size” value is given as 12.2±4.8% and the “reduction of infarct size (first value)” value worked out at 19.0±6.0%. In addition, in assay [2], the “effect on the rise in MPO activity” value is on record as “prevents the rise in the MPO activity”. The inhibition at 0.1 µM in assay [3] (0.1 μmol/l) worked out at 12%. In addition, testing at 1 µM in assay [3] (1 μmol/l) gave an inhibition of 28%. For the same molecule, in assay [3] (10 μmol/l), 10 µM produced 45% inhibition. In assay [3] (50 μmol/l), this molecule returned an inhibition at 50 µM of 60%.

As a reminder, the inhibition is the drop in the measured response relative to a control, in per cent. Low readings indicate little suppression, high ones strong suppression.
